The subject of one series is Mus musculus. The series is described as follows: Analgesic activity in albino mouse assessed as inhibition of acetic acid-induced writhing response at 1 mmol/kg relative to control. The series is classed as functional.
A further series concerns Rattus norvegicus. The series is described as follows: Antiinflammatory activity in rat assessed as inhibition of carrageenan-induced paw edema relative to control. Format: functional.
Series [1] in a line: Antiproliferative activity against human MM1S cells assessed as growth inhibition at 10 uM after 48 hrs by MTT assay relative to control. To be noted: MM1.S, read-out: GI. The series is classed as functional.
A short description of series [2]: Antiproliferative activity against human RPMI8226 cells assessed as growth inhibition at 10 uM after 48 hrs by MTT assay relative to control. To be noted: RPMI-8226, 48 h, read-out: GI. The series is classed as functional.
Series [3] in a line: Antiproliferative activity against human U266 cells assessed as growth inhibition at 10 uM after 48 hrs by MTT assay relative to control. The series is classed as functional. To be noted: U-266, 48 h, read-out: GI.
The test system of a further series is OVCAR-8. The experiment in a line: Resistance factor, ratio of IC50 for human multidrug resistant NCI/ADR-RES cells to IC50 for human OVCAR8 cells. Format: functional.
In series [4] the test system is Raji. The series is described as follows: Cytotoxicity against human Raji cells expressing EBV-EA assessed as inhibition of TPA-induced EBV-EA activation after 48 hrs by trypan blue staining based immunofluorescence method relative to TPA. The series is classed as functional, cell-based.
Series [5] can be described thus: Potency index, ratio of ascorbic acid IC0.2 to compound IC0.2 for antioxidant activity by DPPH assay.
Series [6] in a line: Antioxidant activity assessed as DPPH radical scavenging activity. The series is classed as physicochemical.
Series [7] deals with Raji. The experiment in a line: Cytotoxicity against human Raji cells expressing EBV-EA assessed as inhibition of TPA-induced EBV-EA activation at 38 molar ratio after 48 hrs by trypan blue staining based immunofluorescence method relative to TPA. The series is classed as functional.
Series [8] deals with Raji. The experiment in a line: Cytotoxicity against human Raji cells expressing EBV-EA assessed as inhibition of TPA-induced EBV-EA activation at 500 molar ratio after 48 hrs by trypan blue staining based immunofluorescence method relative to TPA. The series is classed as functional.
The subject of series [9] is Raji. The series is described as follows: Cytotoxicity against human Raji cells expressing EBV-EA assessed as inhibition of TPA-induced EBV-EA activation at 1000 molar ratio after 48 hrs by trypan blue staining based immunofluorescence method relative to TPA. Format: functional.
Series [10] can be described thus: Antioxidant activity assessed as DPPH radical scavenging activity incubated for 20 mins by spectrophotometry analysis. The series is classed as physicochemical.
For a further series, the system named is Brain. The experiment in a line: Antioxidant activity in Wistar rat brain homogenate assessed as inhibition of Fe(II)-induced lipid peroxidation. Format: functional, tissue-based.
Series [11] can be described thus: Antioxidant activity assessed as ABTS free radical scavenging activity. Format: physicochemical.
Series [12] relates to Raji. The series is described as follows: Cytotoxicity against human Raji cells expressing EBV-EA assessed as inhibition of TPA-induced EBV-EA activation at 10 molar ratio after 48 hrs by trypan blue staining based immunofluorescence method relative to TPA. The series is classed as functional.
The next series concerns Spilarctia obliqua. The experiment in a line: Insecticidal activity against third-instar larval stage of Spilosoma obliqua Walker assessed as growth inhibition after 24 hrs by leaf disc method. The series is classed as functional, organism-based.
The subject of series [13] is Raji. The experiment in a line: Cytotoxicity against human Raji cells expressing EBV-EA assessed as inhibition of TPA-induced EBV-EA activation at 100 molar ratio after 48 hrs by trypan blue staining based immunofluorescence method relative to TPA. Format: functional.
In series [14] the test system is Aspergillus niger. The experiment in a line: Fungicidal activity against Aspergillus niger MTCC 218 after 5 to 7 days by agar well diffusion method. Format: functional.
Series [15] deals with Aspergillus oryzae. The experiment in a line: Antifungal activity against Aspergillus oryzae MTCC 262 assessed as growth inhibition after 5 to 7 days by broth dilution method. The series is classed as functional.
Series [16] relates to Penicillium chrysogenum. The experiment in a line: Fungicidal activity against Penicillium chrysogenum MTCC 616 after 5 to 7 days by agar well diffusion method. Format: functional.
Series [17] concerns Aspergillus oryzae. The experiment in a line: Fungicidal activity against Aspergillus oryzae MTCC 262 after 5 to 7 days by agar well diffusion method. Format: functional.
For series [18], the system named is Fusarium oxysporum. The experiment in a line: Antifungal activity against Fusarium oxysporum MTCC 1755 assessed as growth inhibition after 5 to 7 days by broth dilution method. The series is classed as functional.
The subject of series [19] is Fusarium oxysporum. The series is described as follows: Fungicidal activity against Fusarium oxysporum MTCC 1755 after 5 to 7 days by agar well diffusion method. The series is classed as functional.
The test system of series [20] is Aspergillus niger. The series is described as follows: Antifungal activity against Aspergillus niger MTCC 218 assessed as growth inhibition after 5 to 7 days by broth dilution method. The series is classed as functional.
In series [21] the test system is Aspergillus flavus. The series is described as follows: Antifungal activity against Aspergillus flavus MTCC 277 assessed as growth inhibition after 5 to 7 days by broth dilution method. The series is classed as functional.
The test system of a further series is Rhizoctonia solani. The experiment in a line: Antifungal activity against Rhizoctonia solani Kuhn assessed as growth inhibition after 2 to 3 days by poisoned food method. The series is classed as functional, organism-based.
The test system of series [22] is Aspergillus flavus. The series is described as follows: Fungicidal activity against Aspergillus flavus MTCC 277 after 5 to 7 days by agar well diffusion method. The series is classed as functional.
The subject of series [23] is Penicillium chrysogenum. The experiment in a line: Antifungal activity against Penicillium chrysogenum MTCC 616 assessed as growth inhibition after 5 to 7 days by broth dilution method. The series is classed as functional.
Series [24] has as its system Aspergillus ochraceus. The experiment in a line: Antifungal activity against Aspergillus ochraceus MTCC 4643 assessed as growth inhibition after 5 to 7 days by broth dilution method. Format: functional.
The test system of series [25] is Aspergillus ochraceus. The experiment in a line: Fungicidal activity against Aspergillus ochraceus MTCC 4643 after 5 to 7 days by agar well diffusion method. Format: functional.
A short description of series [26]: Potency index, ratio of alpha-tocopherol IC0.2 to compound IC0.2 for antioxidant activity by DPPH assay.
The subject of the next series is NCI/ADR-RES. The series is described as follows: Cytotoxicity against human multidrug resistant NCI/ADR-RES cells overexpressing P-gp assessed as reduction in cell viability by MTT assay. Format: functional, cell-based.
Series [27] is described as follows: Cytotoxicity against human OVCAR8 cells assessed as reduction in cell viability by MTT assay. The series is classed as functional, cell-based. To be noted: OVCAR-8.

The record followed here is ChEMBL document CHEMBL3745685, “An appraisal on recent medicinal perspective of curcumin degradant: Dehydrozingerone (DZG)” (Bioorg Med Chem, 2016).

Values after ≈ are worked out from the molar mass of the structure shown.

As for `CC(C)Cc1ccc(C(C)C(=O)O)cc1` (stereo not drawn) [IBUPROFEN], the inhibition in vivo at 1000 µmol/kg with Mus musculus amounted to 69%. Also, the “inhibition (INH)” value in the series with Rattus norvegicus is on record as 73%.
Consider `COc1cc(/C=C/C(=O)C(=Cc2ccc3c(c2)C(=O)N(C2CCC(=O)NC2=O)C3=O)C(=O)/C=C/c2ccc(O)c(OC)c2)ccc1O` (stereo not drawn), for which the inhibition of growth at 10 µM in [1], in series [2] and in series [3] was at least 90% in each case.
Consider `COc1ccc(/C=C/C(=O)/C=C/c2nc3cc(O)ccc3n2C)cc1O`, for which the “Ratio IC50” value in the series with OVCAR-8 is 1.4.
As for `CC(=O)CCc1ccccc1` [BENZYLACETONE], the IC50 with Raji [4] turned out to be 222 molar ratio.
For `CC(=O)C#Cc1ccccc1` [4-PHENYL-3-BUTYN-2-ONE], in the series with Raji [4], the IC50 is recorded as 48 molar ratio.
Take `CC(=O)/C=C/c1cc(O)ccc1O`: in [5], the Ratio turned out to be 5. In [6], the IC0.2 was 4.9 µM.
As for `C/C=C/c1ccc(O)c(OC)c1`, the “inhibition (INH)” value in the series on Raji [7] was found to be 50%.
For `COc1cccc(/C=C/C(C)=O)c1OCC=C(C)C`, the “inhibition (INH)” value with Raji [8] is reported as 80%.
For the molecule `COc1cc(/C=C/C(C)=O)ccc1OCC=C(C)C`, the “inhibition (INH)” value with Raji [9] is recorded as 100%.
On to `COc1ccc(/C=C/C(C)=O)cc1OC`, for which the IC50 in series [10] came out at 20000 µM; with Raji [4] it was 107 molar ratio.
Take VITAMIN E: in the series on Brain, the IC50 turned out to be 2.5 µM. Moreover, in [6], the IC0.2 stood at 8.3 µM.
As to `COc1cc(C(CC(C)=O)Sc2ccccc2)ccc1O` (stereo not drawn), the IC50 in [11] is 6.5 µM.
Regarding `COc1cccc(/C=C/C(C)=O)c1O`, in the series with Raji [4], the IC50 worked out at 50 molar ratio.
With `COc1ccc(/C=C/C(C)=O)c(OCC=C(C)C)c1`, the “inhibition (INH)” value with Raji [12] is 11%.
With `CCCCC/C=C/C(=O)/C=C/c1ccc(O)c(OC)c1`, in the series on Spilarctia obliqua, the EC50 is 3550 µg/mL (≈ 12.9 mM).
Turning to `COc1cc(/C=C/C(C)=O)ccc1OC(C)=O`, the IC50 in series [10] was 40000 µM.
In the case of `COc1ccc(/C=C/C(C)=O)cc1OCC=C(C)C`, in the series with Raji [13], the “inhibition (INH)” value amounted to 35%.
Consider `COc1cc(/C=C/C(C)=O)ccc1O` [DEHYDROZINGERONE], for which the MFC in the series on Aspergillus niger [14], in the series with Penicillium chrysogenum [16], against Aspergillus oryzae [17], with Fusarium oxysporum [19], against Aspergillus flavus [22] and against Aspergillus ochraceus [25] was 880 µM (≈ 169 µg/mL) each time. Further, the results for the IC50 (in [10]; in series [11]; in the series on Raji [4]) were 300 µM, 8 µM and 95 molar ratio, respectively. In addition, the MIC with Aspergillus oryzae [15], with Fusarium oxysporum [18], in the series with Aspergillus niger [20], in the series on Aspergillus flavus [21], with Penicillium chrysogenum [23] and in the series on Aspergillus ochraceus [24] was 755 µM (≈ 145 µg/mL) throughout. In the series with Rhizoctonia solani, the EC50 came out at 86.5 µg/mL (≈ 0.45 mM).
Regarding `COc1ccc(/C=C/C(=O)/C=C/c2nc3cc(C)ccc3n2C)cc1O`, the “Ratio IC50” value with OVCAR-8 is reported as 1.7.
With `O=C1O[C@H]([C@@H](O)CO)C(O)=C1O` [ASCORBIC ACID], in [6], the IC0.2 turned out to be 23.7 µM.
For `Cc1c(C)c2c(c(C)c1O)CCC(C)(C(=O)O)O2` (stereo not drawn) [TROLOX], the IC50 in [10] amounted to 260 µM.
In the case of `COc1cc(/C=C/C(=O)CC(=O)/C=C/c2ccc(O)c(OC)c2)ccc1O` [CURCUMIN], the IC50 in the series on Raji [4] is given as 97 molar ratio.
With `CC(=O)/C=C/c1cccc(O)c1O`, the Ratio in series [26] came out at 2. Also, in the series on Brain (Rattus norvegicus, Wistar, Brain), the IC50 was 6.3 µM. The IC0.2 in [6] came out at 3.2 µM.
For the molecule `COc1cc(/C=C/C(=O)CC(=O)C(C)c2ccc(CC(C)C)cc2)ccc1O` (stereo not drawn), the inhibition in vivo at 1000 µmol/kg in the series on Mus musculus stood at 59%. Further, the “inhibition (INH)” value with Rattus norvegicus was 76%.
Consider `COc1cc(/C=C/C(=O)/C=C/c2nc3cc(C)ccc3n2C)ccc1O`, for which the “Ratio IC50” value in the series on OVCAR-8 stood at 1.7.
Take `COc1cc(/C=C/C(C)=O)ccc1OC1OC(COC(C)=O)C(OC(C)=O)C(OC(C)=O)C1OC(C)=O` (stereo not drawn): the IC50 in series [10] turned out to be 10000 µM.
As to `COc1cc(/C=C/C(=O)/C=C/c2ccc3c(c2)C(=O)N(C2CCC(=O)NC2=O)C3=O)ccc1O` (stereo not drawn), the inhibition of growth at 10 µM in series [1], in [2] and in series [3] was at least 90% in each case.
As to `COc1cc(/C=C/C(C)=O)ccc1OC1OC(CO)C(O)C(O)C1O` (stereo not drawn), the IC50 in series [10] turned out to be 7500 µM.
Take `COc1cc(C(CC(C)=O)[Se]c2ccccc2)ccc1O` (stereo not drawn): in series [11], the IC50 is 8 µM.
`COc1cc(/C=C/C(=O)/C=C/c2nc3c(C)cccc3n2C)ccc1O`: the “Ratio IC50” value in the series on OVCAR-8 was found to be 33.1. For the same molecule, the IC50 in the series on NCI/ADR-RES is 23.2 µM; in [27], 0.7 µM.
